Reference: paper PMC2943038 (Chemical communications (Cambridge, England), 2010)
Like-named read-outs stand apart in the source and are kept apart here.

Legend:
PAD4 [1] = biological target: T1, PAD4 (Homo sapiens, UniProt Q9UM07); assay: PAD4 inhibition/inactivation, residual activity measured with BAEE; format: biochemical
PAD4 [2] = biological target: T1, PAD4; assay: fluopol-ABPP HTS
PAD4 [3] = biological target: T1, PAD4; assay: gel-based ABPP secondary screen
MCF-7 cells = assay: histone H3 citrullination Western blot in MCF-7 cells; format: cell-based; conditions: MCF7 cells; anti-citrulline histone H3 Western blot; 1, 10, or 100 nM, dose dependent
HL-60 granulocytes = assay: histone H3 citrullination Western blot in HL-60 granulocytes; format: cell-based; conditions: anti-citrulline histone H3 Western blot, 1, 10, or 100 nM, dose dependent
PAD1 = biological target: T2, PAD1 (Homo sapiens, UniProt Q9ULC6); assay: PAD1 inhibition/inactivation, residual activity measured with BAEE
T2 sequence (Q9ULC6 1-663): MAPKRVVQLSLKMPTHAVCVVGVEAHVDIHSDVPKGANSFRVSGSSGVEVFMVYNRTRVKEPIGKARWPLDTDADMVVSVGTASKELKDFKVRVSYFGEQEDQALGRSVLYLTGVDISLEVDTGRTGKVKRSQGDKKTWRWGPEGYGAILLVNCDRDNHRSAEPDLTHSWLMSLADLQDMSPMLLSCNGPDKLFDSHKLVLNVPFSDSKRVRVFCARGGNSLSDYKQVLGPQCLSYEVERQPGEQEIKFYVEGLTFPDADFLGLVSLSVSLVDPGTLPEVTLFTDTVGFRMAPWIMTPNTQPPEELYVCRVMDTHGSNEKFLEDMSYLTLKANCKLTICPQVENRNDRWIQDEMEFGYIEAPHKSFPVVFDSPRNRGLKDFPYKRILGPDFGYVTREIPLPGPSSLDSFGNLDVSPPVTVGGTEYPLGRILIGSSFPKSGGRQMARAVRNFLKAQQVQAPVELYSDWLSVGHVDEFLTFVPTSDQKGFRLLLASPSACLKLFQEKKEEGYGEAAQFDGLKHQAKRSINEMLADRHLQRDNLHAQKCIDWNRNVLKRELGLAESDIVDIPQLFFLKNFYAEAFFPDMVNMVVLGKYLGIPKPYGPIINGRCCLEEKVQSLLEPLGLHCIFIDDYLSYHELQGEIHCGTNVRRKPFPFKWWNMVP

PAD2 [4] = biological target: T3, PAD2 (Homo sapiens, UniProt Q9Y2J8); conditions: PAD4 over PAD2, relative values of kinact/KI
T3 sequence (Q9Y2J8 whole entry): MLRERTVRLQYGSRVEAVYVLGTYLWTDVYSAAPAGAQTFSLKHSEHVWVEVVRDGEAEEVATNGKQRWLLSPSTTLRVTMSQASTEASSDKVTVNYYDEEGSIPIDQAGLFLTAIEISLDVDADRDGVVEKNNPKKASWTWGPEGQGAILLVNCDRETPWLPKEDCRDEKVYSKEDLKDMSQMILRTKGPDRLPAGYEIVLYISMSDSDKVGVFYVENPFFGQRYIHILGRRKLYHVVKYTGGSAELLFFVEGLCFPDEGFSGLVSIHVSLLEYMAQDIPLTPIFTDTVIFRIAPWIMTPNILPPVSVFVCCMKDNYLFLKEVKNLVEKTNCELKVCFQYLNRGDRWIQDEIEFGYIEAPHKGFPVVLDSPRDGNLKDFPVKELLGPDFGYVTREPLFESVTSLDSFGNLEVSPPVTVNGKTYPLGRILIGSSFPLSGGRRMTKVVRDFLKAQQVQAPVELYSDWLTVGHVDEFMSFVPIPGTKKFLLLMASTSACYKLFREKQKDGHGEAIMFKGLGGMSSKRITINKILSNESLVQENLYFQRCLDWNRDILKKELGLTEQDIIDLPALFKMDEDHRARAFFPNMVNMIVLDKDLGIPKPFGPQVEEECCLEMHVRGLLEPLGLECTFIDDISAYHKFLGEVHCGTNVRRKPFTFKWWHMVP

PAD3 = biological target: T4, PAD3 (Homo sapiens, UniProt Q9ULW8); assay: biochemical
T4 sequence (Q9ULW8 1-664): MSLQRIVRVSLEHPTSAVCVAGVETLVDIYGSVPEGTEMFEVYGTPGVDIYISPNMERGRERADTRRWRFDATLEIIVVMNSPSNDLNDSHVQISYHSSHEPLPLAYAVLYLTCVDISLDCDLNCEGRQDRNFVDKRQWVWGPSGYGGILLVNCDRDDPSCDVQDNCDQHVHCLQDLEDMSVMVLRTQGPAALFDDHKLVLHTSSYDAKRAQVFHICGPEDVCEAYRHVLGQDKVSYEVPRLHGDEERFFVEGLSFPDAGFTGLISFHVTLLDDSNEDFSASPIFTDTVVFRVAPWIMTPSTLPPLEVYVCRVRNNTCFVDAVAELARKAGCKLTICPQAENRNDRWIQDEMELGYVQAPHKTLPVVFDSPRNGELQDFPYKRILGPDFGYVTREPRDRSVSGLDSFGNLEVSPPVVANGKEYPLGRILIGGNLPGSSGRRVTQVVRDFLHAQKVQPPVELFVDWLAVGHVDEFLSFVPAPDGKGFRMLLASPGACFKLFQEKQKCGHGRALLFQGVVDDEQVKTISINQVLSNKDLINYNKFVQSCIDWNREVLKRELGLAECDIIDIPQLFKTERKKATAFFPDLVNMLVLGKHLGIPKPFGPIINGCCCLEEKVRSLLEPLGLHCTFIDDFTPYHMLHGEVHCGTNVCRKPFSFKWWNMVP

PAD2 [5] = biological target: T3, PAD2; assay: biochemical

T1 sequence (Q9UM07 whole entry): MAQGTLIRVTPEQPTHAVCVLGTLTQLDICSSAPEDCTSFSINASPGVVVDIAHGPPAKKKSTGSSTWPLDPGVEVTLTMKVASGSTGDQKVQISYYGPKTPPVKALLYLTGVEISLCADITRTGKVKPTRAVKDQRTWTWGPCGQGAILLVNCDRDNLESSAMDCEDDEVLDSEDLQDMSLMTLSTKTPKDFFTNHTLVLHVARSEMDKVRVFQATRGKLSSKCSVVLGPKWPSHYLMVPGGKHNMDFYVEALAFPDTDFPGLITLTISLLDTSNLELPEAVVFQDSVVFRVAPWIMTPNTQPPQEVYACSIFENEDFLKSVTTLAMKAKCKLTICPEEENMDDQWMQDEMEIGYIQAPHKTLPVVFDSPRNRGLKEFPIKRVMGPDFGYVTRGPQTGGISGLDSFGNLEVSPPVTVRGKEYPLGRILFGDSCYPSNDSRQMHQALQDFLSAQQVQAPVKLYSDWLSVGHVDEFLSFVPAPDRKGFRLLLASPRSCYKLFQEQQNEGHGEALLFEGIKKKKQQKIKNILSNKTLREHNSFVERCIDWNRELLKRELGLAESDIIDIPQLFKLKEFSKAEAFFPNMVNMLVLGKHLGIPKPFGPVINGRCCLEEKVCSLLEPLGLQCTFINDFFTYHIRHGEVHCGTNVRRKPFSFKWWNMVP

Row | SMILES | IC50 (PAD4 [1]; read-out: IC50 for PAD4, Table 1, hits of the HTS) [µM] | % Inhibition (library screen) (PAD4 [2]; 5 μM compound final, 2 μM PAD4, 75 nM RFA, 300 min) [%] | % Inhibition (Gel based ABPP) (PAD4 [3]; 10 μM final, inhibition of RFA labeling of PAD4) [%] | concentration that reduced levels of citrullinated histone H3 (MCF-7 cells) [nM] | IC50 (PAD4 [1]) [µM] | Ki (PAD4 [1]) [µM] | PAD4 activity recovered after dialysis (reversibility) (PAD4 [1]; incubated with PAD4 for 30 min, dialyzed overnight (~20 h)) | inhibition at 5 µM (PAD4 [2]; read-out: % Inhibition (library screen)) [%] | concentration that reduced levels of citrullinated histone H3 (HL-60 granulocytes) [nM] | Ki (PAD1) [µM] | Fold selectivity (PAD2 [4]) [fold] | Ki (PAD3) [µM] | Ki (PAD2 [5]) [µM] | inhibition at 10 µM (PAD4 [3]; read-out: % Inhibition (Gel based ABPP)) [%]
1 | Cc1ccc(S(=O)(=O)N[C@@H](Cc2ccccc2)C(=O)CCl)cc1 [NIH5, tosyl phenylalanyl chloromethyl ketone] | 13 ± 2 | 39.7 | 12.9 | – | – | – | – | – | – | – | – | – | – | –
2 | COC1=C(N)C(=O)c2nc(-c3nc(C(=O)O)c(C)c(-c4ccc(OC)c(OC)c4O)c3N)ccc2C1=O [NIH6, streptonigrin] | – | – | – | ≤ 1 | 1.87 ± 0.24 | 8.5 ± 4.3 | no PAD4 activity was recovered | 92.5 | ≤ 1 | 11 ± 7 | 37 | 49 ± 34 | 17 ± 5.8 | 93.9
